Tested on: women with DOR
Test: Matched case control study of embryo aneuploidy by preimplantation genetic screening (Example 11)
Type: in vivo, human
Procedure: In a 1:2, matched case control study, 22 consecutive women with DOR, supplemented with DHEA, underwent preimplantation genetic screening (PGS) of embryos during in vitro fertilization (IVF) cycles. Each was matched by patient age and time period of IVF with two control IVF cycles without DHEA supplementation (n=44). PGS was performed for chromosomes X, Y, 13, 16, 18, 21 and 22, and involved determination of numbers and percentages of aneuploid embryos.
We retrieved from our center's computerized research data bank a total of 22 consecutive DOR patients who underwent IVF/PGS while on DHEA supplementation. Only first IVF cycles were analyzed. These cycles were matched with the two control cycles not on DHEA supplementation, based on patient age and year of treatment (44 controls).
Normal age-specific hormone levels were defined by 95% confidence intervals at all ages, as previously reported. Since patients with DOR were, thus, uniformly diagnosed before IVF cycle protocols were determined, they were all supplemented with DHEA, and stimulation adjustments were made.
During the study period all DOR patients at our center routinely received DHEA supplementation. Those not receiving DHEA, therefore, by definition, had age-appropriate ovarian reserve, confirmed by normal anti-Müllerian hormone (AMH), follicle stimulating hormone (FSH) baseline levels and estradiol. Patients receiving DHEA supplementation were prescribed 25 mg of micronized, pharmaceutical grade DHEA, T.I.D, for at least four weeks prior to IVF cycle start. Short-term supplementation was defined as 4 to 12 weeks of DHEA prior to IVF and PGS; supplementation beyond that was considered long-term supplementation.
Patients with premature DOR, or if over 40 years of age, in first treatment cycles universally receive a so-called microdose gonadotropin releasing hormone agonist (GnRH-a) ovarian stimulation protocol, characterized by leuprolide acetate (50 μg/0.1 mL, b.i.d.; Lupron®, Abbot Pharmaceuticals, North Chicago, Ill.) and ovarian stimulation with follicle stimulating hormone (FSH, 300 IU-450 IU daily) and human menopausal gonadotropins (hMG, 150 IU). If under age 40 with normal ovarian reserve patients receive down regulation with full dose GnRH-a (1.0 mg/0.1 mL) and ovarian stimulation with up to 300 IU of gonadotropins, usually half as FSH and half as hMG. Higher luteinizing hormone (LH) contributions to ovarian stimulation, if anything, reduce embryo aneuploidy. The small difference in ovarian stimulation protocols between women with DOR and controls, therefore, potentially biases study outcome towards lower aneuploidy rates in the control population, which received a proportionally higher LH contributions to ovarian stimulation.
PGS was performed, utilizing fluorescence in situ hybridization (FISH) in routine fashion, utilizing probes for seven chromosomes (X, Y, 13, 16, 18, 21 and 22) on day three after fertilization, when embryos reached six to eight cell stages. This restricted chromosome panel is currently routinely utilized for PGS.
A general linear model was constructed to assess DHEA effects on percent aneuploidy after adjustment for age, indications for PGS, stimulation protocol and total gonadotropin dosage utilized. The latter adjustment was made as a surrogate for potential physician biases in how individual patients were stimulated, and potential effects such stimulation biases may have on ploidy.

[1] = DHEA patients n=22, PGS by FISH, seven chromosomes

## C[C@]12CC[C@H](O)CC1=CC[C@@H]1[C@@H]2CC[C@]2(C)C(=O)CC[C@@H]12 [DHEA, Dehydroepiandrosterone]
DHEA patients n=22
  Embryo Grades (mean ± SD): 3.4±0.4
  Embryos Cryopreserved (n, mean ± SD): 0.7±1.6
  Embryos Transferred (n, mean ± SD): 1.4±0.9
  Embryos Undergoing PGS (n, mean ± SD): 7.3±3.9
DHEA patients n=22, 25 mg T.I.D. at least four weeks
  Oocytes retrieved (n, mean ± SD): 9.6±6.2
[1]
  aneuploid embryos (absolute number): 2.8±2.5
  percentages of aneuploidy: 38.2±24.4
Short term supplementation (4-12 weeks), 95% CI -2.871-46.031
  reduction in aneuploidy: 21.6%

Reference: patent publication US9375436B2, “Androgen treatment in females” (priority 2004, dated 2016)
